Data: ChEMBL document CHEMBL1201862, “PubChem BioAssay data set” (2004)
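Cells were grown in 96-well plates and exposed to each compound for 48 hours at five concentrations; endpoints were interpolated linearly between bracketing concentrations, or set to the highest concentration if not reached. Here, GI50 denotes the concentration required for 50% inhibition of growth.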 Calls of active or inactive are those of the source. Rule as the data show it: active = GI50 up to about 1.1 µM and inactive = higher.

Key:
Experiment in all cases: NCI-60 cell line screen, 48 h
[1] = test system: SK-OV-3
[2] = test system: A549
[3] = test system: HL-60
[4] = test system: BT-549
[5] = test system: MDA-MB-435
[6] = test system: MDA-MB-231
[7] = test system: CCRF-CEM
[8] = test system: OVCAR-3
[9] = test system: K562
[10] = test system: PC-3
[11] = test system: SN12C
[12] = test system: EKVX
[13] = test system: UACC-257
[14] = test system: NCI-H226
[15] = test system: OVCAR-4
[16] = test system: 786-0
[17] = test system: RPMI-8226
[18] = test system: NCI-H522
[19] = test system: U-251
[20] = test system: NCI-H460

Measured: GI50

CCCCNN
inactive: [1] > 100 µM | [2] > 100 µM | [3] > 100 µM | [4] > 100 µM | [5] > 100 µM | [6] > 100 µM | [7] 43 µM | [8] > 100 µM | [9] > 100 µM | [10] > 100 µM | [11] > 100 µM | [12] > 100 µM | [13] > 100 µM | [14] > 100 µM | [15] > 100 µM | [16] > 100 µM | [17] > 100 µM | [18] 65.3 µM | [19] > 100 µM

CNc1ncnc2c1cnn2Cc1cn(COCC(O)CO)nn1 (stereo not given)
inactive: [1] > 100 µM | [2] > 100 µM | [3] > 100 µM | [4] > 100 µM | [5] > 100 µM | [6] > 100 µM | [7] > 100 µM | [8] > 100 µM | [10] > 100 µM | [11] > 100 µM | [12] > 100 µM | [13] > 100 µM | [14] > 100 µM | [15] > 100 µM | [16] > 100 µM | [17] > 100 µM | [19] > 100 µM

O=C1C(Cl)C2(CC(/C=C/c3ccccc3Cl)=NN2c2cccc(S(=O)(=O)O)c2)N1c1nc2ccccc2s1 (stereo not given)
inactive: [2] 72.1 µM | [3] 6.67 µM | [4] > 100 µM | [5] 1.5 µM | [6] 79.8 µM | [7] 8.11 µM | [20] 63.5 µM | [9] 2.11 µM | [10] 66.4 µM | [11] 93.5 µM | [12] 49 µM | [13] 66.8 µM | [14] 30.2 µM | [15] 29.1 µM | [16] 21.9 µM | [17] 9.29 µM | [18] 12.6 µM | [19] 41.7 µM

CC(C)(CO)CNc1cc(Cl)nc(N)n1
inactive: [2] > 100 µM | [3] > 100 µM | [4] > 100 µM | [5] > 100 µM | [6] > 100 µM | [7] > 100 µM | [20] > 100 µM | [8] > 100 µM | [9] > 100 µM | [10] > 100 µM | [11] > 100 µM | [12] > 100 µM | [13] > 100 µM | [14] > 100 µM | [15] > 100 µM | [16] > 100 µM | [17] > 100 µM | [18] > 100 µM | [19] > 100 µM

Cc1ccc(O)c(C(c2ccc(C(c3cc(C)ccc3O)c3cc(C)ccc3O)cc2)c2cc(C)ccc2O)c1
inactive: [1] 1.68 µM | [2] 1.67 µM | [3] 2.26 µM | [4] 2.01 µM | [5] 1.7 µM | [6] 1.25 µM | [7] 2.28 µM | [8] 1.74 µM | [9] 1.77 µM | [10] 1.59 µM | [11] 1.65 µM | [12] 1.87 µM | [13] 1.85 µM | [14] 1.86 µM | [15] 1.79 µM | [16] 1.67 µM | [17] 1.56 µM | [18] 2.08 µM | [19] 1.98 µM

CC(=O)NC(Cc1ccc(O)cc1)C(=O)O (stereo not given)
inactive: [1] > 100 µM | [2] > 100 µM | [3] > 100 µM | [4] > 100 µM | [5] > 100 µM | [6] > 100 µM | [20] > 100 µM | [8] > 100 µM | [9] > 100 µM | [10] > 100 µM | [11] > 100 µM | [12] > 100 µM | [13] > 100 µM | [14] > 100 µM | [15] > 100 µM | [16] > 100 µM | [17] > 100 µM | [18] > 100 µM | [19] > 100 µM

CCOC(=O)COc1ccc2c(C)cc(=O)oc2c1
inactive: [2] > 100 µM | [3] > 100 µM | [4] > 100 µM | [5] > 100 µM | [6] > 100 µM | [7] > 100 µM | [20] 45.8 µM | [8] > 100 µM | [9] > 100 µM | [10] > 100 µM | [11] > 100 µM | [12] > 100 µM | [13] > 100 µM | [14] > 100 µM | [15] > 100 µM | [16] > 100 µM | [17] > 100 µM | [18] > 100 µM | [19] > 100 µM

Cc1ccccc1/N=N/c1ccc(/N=N/c2c(O)ccc3cc(S(=O)(=O)O)cc(S(=O)(=O)O)c23)c(C)c1
inactive: [1] > 100 µM | [2] > 100 µM | [3] > 100 µM | [4] > 100 µM | [5] > 100 µM | [6] > 100 µM | [7] > 100 µM | [20] > 100 µM | [8] > 100 µM | [9] > 100 µM | [10] > 100 µM | [12] > 100 µM | [13] > 100 µM | [14] > 100 µM | [15] > 100 µM | [16] > 100 µM | [17] > 100 µM | [18] > 100 µM | [19] > 100 µM

CC1CN(c2cc3c(cc2F)c(=O)c(C(=O)O)cn3-c2ccc(N3CCN(C)CC3)cn2)CC(C)N1 (stereo not given)
inactive: [1] > 100 µM | [2] > 100 µM | [3] > 100 µM | [4] > 100 µM | [5] > 100 µM | [6] > 100 µM | [7] > 100 µM | [20] > 100 µM | [8] > 100 µM | [9] 65.6 µM | [10] > 100 µM | [11] > 100 µM | [12] > 100 µM | [13] > 100 µM | [14] > 100 µM | [15] > 100 µM | [16] > 100 µM | [17] > 100 µM | [19] 70.5 µM

N=c1oc2ccccc2cc1C(=O)Nc1cccc2ccccc12
inactive: [1] > 100 µM | [2] > 100 µM | [3] > 100 µM | [4] > 100 µM | [5] > 100 µM | [6] > 100 µM | [7] > 100 µM | [20] > 100 µM | [8] > 100 µM | [9] > 100 µM | [10] > 100 µM | [11] > 100 µM | [13] > 100 µM | [14] > 100 µM | [15] > 100 µM | [16] 80 µM | [17] > 100 µM | [19] 82.4 µM

CC1(C)OC(=O)CC12CCN(Cc1ccccc1)CC2
inactive: [1] > 100 µM | [2] > 100 µM | [3] > 100 µM | [4] > 100 µM | [5] > 100 µM | [6] > 100 µM | [7] > 100 µM | [8] > 100 µM | [9] > 100 µM | [10] > 100 µM | [11] > 100 µM | [12] > 100 µM | [13] > 100 µM | [14] > 100 µM | [15] > 100 µM | [16] > 100 µM | [17] > 100 µM | [18] > 100 µM | [19] > 100 µM
